Experimental data taken from patent publication US11919965B2, “Methods of treating multiple myeloma with bispecific anti-BCMA x anti-CD3 antibodies” (Regeneron Pharmaceuticals, Inc., priority 2019, dated 2024).
Read-outs that look alike come from different tables or passages of the source.

Legend:
[1] = system: primary multiple myeloma blast cells; assay: FACS cytotoxicity assay, autologous T cell-mediated killing of primary multiple myeloma blast cells; assay type: cell-based, human; conditions: for EC50: read-out: MM Lysis EC50
Method: In order to monitor the specific killing of multiple myeloma cells by flow cytometry, bone marrow mononuclear cells (BMMC) from multiple myeloma patients were plated on human stromal cells (HS5) and rested overnight at 37 C. Separately, matching patient peripheral blood mononuclear cells (PBMC) were thawed and cultured in supplemented RPMI media at 1×10^6 cells/mL overnight at 37° C. in order to enrich for lymphocytes by depleting adherent cells. The next day, BMMC were co-incubated with adherent cell-depleted naïve PBMC on stromal cells (HS5) and a serial 10× dilution of BCMA×CD3 bispecific or 1-arm CD3 isotype control (starting concentration 66.7 nM) at 37° C. Cells were removed from cell culture plates at day 3, 4 or 7 and analyzed by FACS. For the assessment of specificity of killing, multiple myeloma cells were gated as single, live, CD90 negative (to exclude stromal cells), CD2 negative, CD56 positive. CD45 was low on multiple myeloma cells in most samples except MM455. Percent of live target cells was reported for the calculation of adjusted survival as follows: Adjusted survival=(R1/R2)*100, where R1=% live target cells in the presence of antibody, and R2=% live target cells in the absence of test antibody.
T cells were gated as CD2 positive, CD56 negative and either CD4 or CD8 positive. T cell activation was reported as the percent of CD25+CD4 or CD8 T cells out of total CD4 or CD8 T cells.

[2] = system: established BCMA-expressing NCI-H929 multiple myeloma tumors; assay: Xenogenic tumor model, established NCI-H929 tumors + human PBMC in NSG mice, treatment from day 5 (Example 12); assay type: in vivo, mouse; conditions: for Average Tumor Size (mm3) ± SEM on Day 5: day of first dose
Method: To determine the in vivo efficacy of anti-BCMA×anti-CD3 bispecific antibodies (Abs), a xenogenic tumor study was performed. Immunodeficient NOD.Cg-Prkdc^scidII2rg^tm1Wjl/SzJ (NSG) mice were subcutaneously implanted with a mixture of 10×10^6 BCMA-expressing NCI-H929 human multiple myeloma tumor cells and 0.5×10^6 human peripheral blood mononuclear cells (PBMC) isolated from a normal, healthy donor. The tumors were allowed to grow and establish for 5 days until they were approximately 70 mm^3 in size. […] The mice were administered these Abs twice per week for a total of seven doses, and tumor growth was assessed over 55 days.
Implantation and measurement of xenogenic tumors: NSG mice were subcutaneously implanted with a mixture of 10×10^6 BCMA-expressing NCI-H929 multiple myeloma cells and 0.5×10^6 PBMC derived from a normal, healthy donor. The tumors were allowed to grow and establish for 5 days until they were approximately 70 mm^3 in size. […] The mice were administered Abs twice per week for a total of seven doses. Tumor growth was measured with calipers twice per week for the duration of the experiment.
(§1) Calculation of xenogenic tumor growth and inhibition: In order to determine tumor volume by external caliper, the greatest longitudinal diameter (length in mm) and the greatest transverse diameter (width in mm) were determined. Tumor volumes based on caliper measurements were calculated by the formula: Volume (mm^3)=(length× width^2)/2.

[3] = system: BCMA-expressing MOLP-8 multiple myeloma tumors; assay: Xenogenic tumor model, MOLP-8 + human PBMC s.c. in NSG mice, dose response (Example 13); assay type: in vivo, mouse
Method: To determine the in vivo efficacy of anti-BCMA×anti-CD3 bispecific antibodies (Abs), a xenogenic tumor study was performed. Immunodeficient NOD.Cg-Prkdc^scidII2rg^tm1Wjl/SzJ (NSG) mice were subcutaneously implanted with a mixture of 5×10^6 BCMA-expressing MOLP-8 human multiple myeloma tumor cells and 1×10^6 human peripheral blood mononuclear cells (PBMC) isolated from a normal, healthy donor. […] The mice were administered these Abs twice per week for a total of seven doses, and tumor growth was assessed over 56 days. While the BCMA+ MOLP-8 tumors grew similarly in the vehicle- and CD3-binding control-treated mice, both BCMA×CD3 Abs that were tested prevented the growth of tumors in a dose-dependent manner in vivo.
Implantation and measurement of xenogenic tumors: NSG mice were subcutaneously implanted with a mixture of 5×10^6 BCMA-expressing MOLP-8 multiple myeloma cells and 1×10^6 PBMC derived from a normal, healthy donor. […] The mice were administered Abs twice per week for a total of seven doses. Tumor growth was measured by caliper twice per week for the duration of the experiment.
as §1

Substance: REGN5459: anti-BCMA×anti-CD3 bispecific antibody: mAb21581 BCMA heavy chain, mAb7221G20 CD3 heavy chain and common light chain; SEQ ID NOs 126, 128, 129
- EC50 ([1]; Sample MM2, E:T 1.4, 7 days): 7.24 nM
- % MM lysis at 66 nM ([1]; Sample MM2, newly diagnosed, E:T 1.4, 7 days): 85%
- EC50 ([1]; Sample MM369, E:T 0.3, 3 days): 0.496 nM
- % MM lysis at 66 nM ([1]; Sample MM369, newly diagnosed, E:T 0.3, 3 days): 94%
- EC50 ([1]; Sample MM453, E:T 2.4, 3 days): 1.19 nM
- % MM lysis at 66 nM ([1]; Sample MM453, newly diagnosed, E:T 2.4, 3 days): 80%
- EC50 ([1]; Sample MM455, E:T 0.4, 3 days): 79.4 nM
- % MM lysis at 66 nM ([1]; Sample MM455, progression, treated, E:T 0.4, 3 days): 52%
- Average Tumor Size (mm3) ± SEM on Day 8 ([2]; 0.04 mg/kg): 152.3 ± 20.0 mm3
- Average Tumor Size (mm3) ± SEM on Day 12 ([2]; 0.04 mg/kg): 462.5 ± 57.7 mm3
- Average Tumor Size (mm3) ± SEM on Day 15 ([2]; 0.04 mg/kg): 1094.2 ± 78.9 mm3
- Average Tumor Size (mm3) ± SEM on Day 19 ([2]; 0.04 mg/kg): 2412.5 ± 184.6 mm3
- Average Tumor Size (mm3) ± SEM on Day 22 ([2]; 0.04 mg/kg): 3285.9 ± 227.3 mm3
- Average Tumor Size (mm3) ± SEM on Day 5 ([2]; 0.04 mg/kg): 74.9 ± 6.4 mm3
- Average Tumor Size (mm3) ± SEM on Day 8 ([2]; 0.4 mg/kg): 171.9 ± 23.2 mm3
- Average Tumor Size (mm3) ± SEM on Day 12 ([2]; 0.4 mg/kg): 233.8 ± 63.5 mm3
- Average Tumor Size (mm3) ± SEM on Day 15 ([2]; 0.4 mg/kg): 327.2 ± 135.6 mm3
- Average Tumor Size (mm3) ± SEM on Day 19 ([2]; 0.4 mg/kg): 606.2 ± 288.8 mm3
- Average Tumor Size (mm3) ± SEM on Day 22 ([2]; 0.4 mg/kg): 815.4 ± 387.1 mm3
- Average Tumor Size (mm3) ± SEM on Day 27 ([2]; 0.4 mg/kg): 1849.9 ± 903.1 mm3
- Average Tumor Size (mm3) ± SEM on Day 30 ([2]; 0.4 mg/kg): 661.8 ± 490.1 mm3
- Average Tumor Size (mm3) ± SEM on Day 35 ([2]; 0.4 mg/kg): 996.8 ± 771.0 mm3
- Average Tumor Size (mm3) ± SEM on Day 40 ([2]; 0.4 mg/kg): 375.6 ± 375.6 mm3
- Average Tumor Size (mm3) ± SEM on Day 55 ([2]; 0.4 mg/kg): 0 ± 0 mm3
- Average Tumor Size (mm3) ± SEM on Day 5 ([2]; 0.4 mg/kg): 69.5 ± 4.1 mm3
- Average Tumor Size (mm3) ± SEM on Day 8 ([2]; 4 mg/kg): 45.8 ± 9.8 mm3
- Average Tumor Size (mm3) ± SEM on Day 15 ([2]; 4 mg/kg): 0 ± 0 mm3
- Average Tumor Size (mm3) ± SEM on Day 19 ([2]; 4 mg/kg): 0 ± 0 mm3
- Average Tumor Size (mm3) ± SEM on Day 22 ([2]; 4 mg/kg): 0 ± 0 mm3
- Average Tumor Size (mm3) ± SEM on Day 27 ([2]; 4 mg/kg): 0 ± 0 mm3
- Average Tumor Size (mm3) ± SEM on Day 30 ([2]; 4 mg/kg): 0 ± 0 mm3
- Average Tumor Size (mm3) ± SEM on Day 35 ([2]; 4 mg/kg): 0 ± 0 mm3
- Average Tumor Size (mm3) ± SEM on Day 40 ([2]; 4 mg/kg): 0 ± 0 mm3
- Average Tumor Size (mm3) ± SEM on Day 55 ([2]; 4 mg/kg): 0 ± 0 mm3
- Average Tumor Size (mm3) ± SEM on Day 5 ([2]; 4 mg/kg): 61.8 ± 5.2 mm3
- Average Tumor Size (mm3) ± SEM on Day 3 ([3]; 0.04 mg/kg): 11.7 ± 2.1 mm3
- Average Tumor Size (mm3) ± SEM on Day 7 ([3]; 0.04 mg/kg): 37.0 ± 5.7 mm3
- Average Tumor Size (mm3) ± SEM on Day 10 ([3]; 0.04 mg/kg): 104 ± 23.0 mm3
- Average Tumor Size (mm3) ± SEM on Day 14 ([3]; 0.04 mg/kg): 356.7 ± 84.6 mm3
- Average Tumor Size (mm3) ± SEM on Day 17 ([3]; 0.04 mg/kg): 645.6 ± 140.9 mm3
- Average Tumor Size (mm3) ± SEM on Day 21 ([3]; 0.04 mg/kg): 1442.4 ± 310.7 mm3
- Average Tumor Size (mm3) ± SEM on Day 23 ([3]; 0.04 mg/kg): 2124.4 ± 444.1 mm3
- Average Tumor Size (mm3) ± SEM on Day 28 ([3]; 0.04 mg/kg): 1939.3 ± 840.6 mm3
- Average Tumor Size (mm3) ± SEM on Day 31 ([3]; 0.04 mg/kg): 2688.7 ± 1176.6 mm3
- Average Tumor Size (mm3) ± SEM on Day 35 ([3]; 0.04 mg/kg): 612.1 ± 0 mm3
- Average Tumor Size (mm3) ± SEM on Day 3 ([3]; 0.4 mg/kg): 14.0 ± 1.6 mm3
- Average Tumor Size (mm3) ± SEM on Day 7 ([3]; 0.4 mg/kg): 0 ± 0 mm3
- Average Tumor Size (mm3) ± SEM on Day 10 ([3]; 0.4 mg/kg): 0 ± 0 mm3
- Average Tumor Size (mm3) ± SEM on Day 14 ([3]; 0.4 mg/kg): 0 ± 0 mm3
- Average Tumor Size (mm3) ± SEM on Day 17 ([3]; 0.4 mg/kg): 0 ± 0 mm3
- Average Tumor Size (mm3) ± SEM on Day 21 ([3]; 0.4 mg/kg): 0 ± 0 mm3
- Average Tumor Size (mm3) ± SEM on Day 23 ([3]; 0.4 mg/kg): 0 ± 0 mm3
- Average Tumor Size (mm3) ± SEM on Day 28 ([3]; 0.4 mg/kg): 0 ± 0 mm3
- Average Tumor Size (mm3) ± SEM on Day 31 ([3]; 0.4 mg/kg): 0 ± 0 mm3
- Average Tumor Size (mm3) ± SEM on Day 35 ([3]; 0.4 mg/kg): 0 ± 0 mm3
- Average Tumor Size (mm3) ± SEM on Day 42 ([3]; 0.4 mg/kg): 0 ± 0 mm3
- Average Tumor Size (mm3) ± SEM on Day 56 ([3]; 0.4 mg/kg): 0 ± 0 mm3
- Average Tumor Size (mm3) ± SEM on Day 3 ([3]; 4 mg/kg): 12.9 ± 1.3 mm3
- Average Tumor Size (mm3) ± SEM on Day 7 ([3]; 4 mg/kg): 0.6 ± 0.6 mm3
- Average Tumor Size (mm3) ± SEM on Day 10 ([3]; 4 mg/kg): 0 ± 0 mm3
- Average Tumor Size (mm3) ± SEM on Day 14 ([3]; 4 mg/kg): 0 ± 0 mm3
- Average Tumor Size (mm3) ± SEM on Day 17 ([3]; 4 mg/kg): 0 ± 0 mm3
- Average Tumor Size (mm3) ± SEM on Day 21 ([3]; 4 mg/kg): 0 ± 0 mm3
- Average Tumor Size (mm3) ± SEM on Day 23 ([3]; 4 mg/kg): 0 ± 0 mm3
- Average Tumor Size (mm3) ± SEM on Day 28 ([3]; 4 mg/kg): 1.9 ± 1.9 mm3
- Average Tumor Size (mm3) ± SEM on Day 31 ([3]; 4 mg/kg): 3.8 ± 3.0 mm3
- Average Tumor Size (mm3) ± SEM on Day 35 ([3]; 4 mg/kg): 9.3 ± 7.5 mm3
- Average Tumor Size (mm3) ± SEM on Day 42 ([3]; 4 mg/kg): 12.8 ± 12.8 mm3
- Average Tumor Size (mm3) ± SEM on Day 56 ([3]; 4 mg/kg): 17.2 ± 17.2 mm3
